Our source for the AC50 values is ChEMBL document CHEMBL5291721, “A preclinical secondary pharmacology resource illuminates target-adverse drug reaction associations of marketed drugs” (Nat Commun, 2023).

Targets include Mu-type opioid receptor (Homo sapiens, UniProt P35372); D(3) dopamine receptor (Homo sapiens, UniProt P35462); Histamine H3 receptor (Homo sapiens, UniProt Q9Y5N1).
Assay [1] has as its target T1, 5-hydroxytryptamine receptor 2B (Homo sapiens, UniProt P41595). The format is functional, cell-based.
Assay [2] deals with T1, 5-hydroxytryptamine receptor 2B. The format is functional, cell-based. This is another data set of the same source.
The target in assay [3] is Voltage-dependent L-type calcium channel subunit alpha-1C (Rattus norvegicus, UniProt P22002). The format is functional.
The target in assay [4] is 3',5'-cyclic-AMP phosphodiesterase 4D (Homo sapiens, UniProt Q08499). The format is functional.
Assay [5] concerns the target T2, Alpha-1A adrenergic receptor (Homo sapiens, UniProt P35348).
T2 sequence (P35348 whole entry): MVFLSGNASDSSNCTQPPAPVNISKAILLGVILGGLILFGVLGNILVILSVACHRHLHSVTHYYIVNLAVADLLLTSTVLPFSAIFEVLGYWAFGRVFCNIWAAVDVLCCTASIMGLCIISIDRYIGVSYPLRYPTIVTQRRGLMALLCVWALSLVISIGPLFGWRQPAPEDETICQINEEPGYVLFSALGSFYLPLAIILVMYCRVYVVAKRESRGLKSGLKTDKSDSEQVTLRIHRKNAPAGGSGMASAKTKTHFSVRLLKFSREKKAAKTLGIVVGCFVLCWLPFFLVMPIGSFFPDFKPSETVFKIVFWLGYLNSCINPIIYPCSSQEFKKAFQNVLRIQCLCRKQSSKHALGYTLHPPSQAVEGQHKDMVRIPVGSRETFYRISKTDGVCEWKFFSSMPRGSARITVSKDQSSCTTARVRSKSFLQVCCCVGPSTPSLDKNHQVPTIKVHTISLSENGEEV

Another assay has as its target T3, Adenosine receptor A1 (Homo sapiens, UniProt P30542).
T3 sequence (P30542 whole entry): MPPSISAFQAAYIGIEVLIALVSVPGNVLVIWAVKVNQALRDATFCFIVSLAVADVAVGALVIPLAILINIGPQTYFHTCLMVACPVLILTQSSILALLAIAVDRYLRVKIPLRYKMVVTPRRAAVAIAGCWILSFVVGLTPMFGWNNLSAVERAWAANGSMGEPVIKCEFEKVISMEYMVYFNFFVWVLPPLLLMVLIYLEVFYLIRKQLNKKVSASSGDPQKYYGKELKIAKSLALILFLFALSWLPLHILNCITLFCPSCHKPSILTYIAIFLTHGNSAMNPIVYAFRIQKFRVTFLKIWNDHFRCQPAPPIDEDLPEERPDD

The target of assay [6] is T4, 5-hydroxytryptamine receptor 3A (Homo sapiens, UniProt P46098).
T4 sequence (P46098 whole entry): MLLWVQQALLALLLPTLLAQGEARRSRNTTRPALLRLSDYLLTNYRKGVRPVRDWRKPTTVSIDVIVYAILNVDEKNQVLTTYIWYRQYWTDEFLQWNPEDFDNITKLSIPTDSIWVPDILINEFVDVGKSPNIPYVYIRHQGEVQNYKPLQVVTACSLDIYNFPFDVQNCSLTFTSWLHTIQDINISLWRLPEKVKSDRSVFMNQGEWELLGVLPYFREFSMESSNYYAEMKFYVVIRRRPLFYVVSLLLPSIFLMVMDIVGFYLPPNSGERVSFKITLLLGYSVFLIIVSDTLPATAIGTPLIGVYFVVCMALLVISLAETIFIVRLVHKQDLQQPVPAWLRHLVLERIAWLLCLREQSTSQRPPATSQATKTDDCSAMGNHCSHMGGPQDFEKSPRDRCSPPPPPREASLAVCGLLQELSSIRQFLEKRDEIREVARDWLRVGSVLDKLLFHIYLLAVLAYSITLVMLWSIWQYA
The format is functional.

Assay [7] deals with 5-hydroxytryptamine receptor 2A (Homo sapiens, UniProt P28223). The format is functional, cell-based.
The next assay concerns the target Cannabinoid receptor 1 (Homo sapiens, UniProt P21554). The format is functional, cell-based.
The target of the next assay is T5, Adenosine receptor A3 (Homo sapiens, UniProt P0DMS8).
T5 sequence (P0DMS8 whole entry): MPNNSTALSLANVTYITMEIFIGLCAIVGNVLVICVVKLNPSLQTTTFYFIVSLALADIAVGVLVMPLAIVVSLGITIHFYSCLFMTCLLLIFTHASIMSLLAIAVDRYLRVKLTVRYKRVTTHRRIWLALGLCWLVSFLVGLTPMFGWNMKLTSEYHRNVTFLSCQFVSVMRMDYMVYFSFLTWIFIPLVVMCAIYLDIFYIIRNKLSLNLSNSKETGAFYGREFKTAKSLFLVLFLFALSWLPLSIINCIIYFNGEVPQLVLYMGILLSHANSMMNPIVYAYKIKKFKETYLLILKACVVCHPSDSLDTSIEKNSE

Assay [8] concerns the target T6, Prostaglandin G/H synthase 1 (Rattus norvegicus, UniProt Q63921).
T6 sequence (Q63921 whole entry): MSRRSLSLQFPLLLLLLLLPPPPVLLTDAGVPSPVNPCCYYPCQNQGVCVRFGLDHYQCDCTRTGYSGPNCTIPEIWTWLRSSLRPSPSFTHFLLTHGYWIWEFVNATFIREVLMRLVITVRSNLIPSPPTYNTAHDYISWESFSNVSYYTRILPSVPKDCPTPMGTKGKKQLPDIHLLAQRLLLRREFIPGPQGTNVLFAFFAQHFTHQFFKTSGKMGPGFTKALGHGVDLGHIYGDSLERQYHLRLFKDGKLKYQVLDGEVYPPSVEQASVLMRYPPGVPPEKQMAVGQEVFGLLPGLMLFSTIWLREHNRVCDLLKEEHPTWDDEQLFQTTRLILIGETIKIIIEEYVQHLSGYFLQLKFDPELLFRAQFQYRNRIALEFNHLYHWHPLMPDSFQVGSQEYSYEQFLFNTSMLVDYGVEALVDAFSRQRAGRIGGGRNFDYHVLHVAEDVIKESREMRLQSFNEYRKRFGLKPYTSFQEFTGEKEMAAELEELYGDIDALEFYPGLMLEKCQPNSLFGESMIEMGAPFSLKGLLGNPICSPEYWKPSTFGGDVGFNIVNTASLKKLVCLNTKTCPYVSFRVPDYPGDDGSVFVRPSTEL
The format is functional.

The target of assay [9] is T2, Alpha-1A adrenergic receptor. The format is functional, cell-based.

Values joined by “and” are separate entries in the source; they are usually repeats but may differ in a detail not shown here. Equal values may be shown once.

As usually defined, the AC50 is the midpoint of the concentration-response curve, whichever way the signal moves.
Note: assay procedure not described here.

Cannabinoid receptor 1, sequence (P21554 whole entry): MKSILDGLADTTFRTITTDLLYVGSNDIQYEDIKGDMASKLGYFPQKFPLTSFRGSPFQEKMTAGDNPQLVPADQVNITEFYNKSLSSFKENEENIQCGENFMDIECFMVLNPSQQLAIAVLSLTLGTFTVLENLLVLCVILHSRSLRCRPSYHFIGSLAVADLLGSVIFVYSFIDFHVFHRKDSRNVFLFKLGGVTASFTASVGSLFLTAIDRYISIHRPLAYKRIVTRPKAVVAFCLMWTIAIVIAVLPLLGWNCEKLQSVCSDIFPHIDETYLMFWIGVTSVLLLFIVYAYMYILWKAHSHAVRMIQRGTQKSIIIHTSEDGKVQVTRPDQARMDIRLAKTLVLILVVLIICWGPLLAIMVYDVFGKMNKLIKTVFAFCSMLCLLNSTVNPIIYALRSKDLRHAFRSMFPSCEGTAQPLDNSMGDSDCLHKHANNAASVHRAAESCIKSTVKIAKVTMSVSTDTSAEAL
D(3) dopamine receptor, sequence (P35462 whole entry): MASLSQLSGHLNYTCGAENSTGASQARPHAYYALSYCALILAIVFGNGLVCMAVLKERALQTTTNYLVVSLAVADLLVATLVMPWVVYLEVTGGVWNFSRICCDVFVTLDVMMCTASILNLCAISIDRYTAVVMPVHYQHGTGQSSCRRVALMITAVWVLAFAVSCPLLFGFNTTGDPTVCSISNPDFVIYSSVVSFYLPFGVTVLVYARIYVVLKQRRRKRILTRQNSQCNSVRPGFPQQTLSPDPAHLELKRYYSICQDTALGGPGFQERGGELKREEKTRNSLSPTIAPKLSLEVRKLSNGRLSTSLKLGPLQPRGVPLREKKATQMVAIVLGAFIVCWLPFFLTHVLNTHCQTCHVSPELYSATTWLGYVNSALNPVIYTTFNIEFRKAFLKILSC
Voltage-dependent L-type calcium channel subunit alpha-1C, sequence (P22002 whole entry): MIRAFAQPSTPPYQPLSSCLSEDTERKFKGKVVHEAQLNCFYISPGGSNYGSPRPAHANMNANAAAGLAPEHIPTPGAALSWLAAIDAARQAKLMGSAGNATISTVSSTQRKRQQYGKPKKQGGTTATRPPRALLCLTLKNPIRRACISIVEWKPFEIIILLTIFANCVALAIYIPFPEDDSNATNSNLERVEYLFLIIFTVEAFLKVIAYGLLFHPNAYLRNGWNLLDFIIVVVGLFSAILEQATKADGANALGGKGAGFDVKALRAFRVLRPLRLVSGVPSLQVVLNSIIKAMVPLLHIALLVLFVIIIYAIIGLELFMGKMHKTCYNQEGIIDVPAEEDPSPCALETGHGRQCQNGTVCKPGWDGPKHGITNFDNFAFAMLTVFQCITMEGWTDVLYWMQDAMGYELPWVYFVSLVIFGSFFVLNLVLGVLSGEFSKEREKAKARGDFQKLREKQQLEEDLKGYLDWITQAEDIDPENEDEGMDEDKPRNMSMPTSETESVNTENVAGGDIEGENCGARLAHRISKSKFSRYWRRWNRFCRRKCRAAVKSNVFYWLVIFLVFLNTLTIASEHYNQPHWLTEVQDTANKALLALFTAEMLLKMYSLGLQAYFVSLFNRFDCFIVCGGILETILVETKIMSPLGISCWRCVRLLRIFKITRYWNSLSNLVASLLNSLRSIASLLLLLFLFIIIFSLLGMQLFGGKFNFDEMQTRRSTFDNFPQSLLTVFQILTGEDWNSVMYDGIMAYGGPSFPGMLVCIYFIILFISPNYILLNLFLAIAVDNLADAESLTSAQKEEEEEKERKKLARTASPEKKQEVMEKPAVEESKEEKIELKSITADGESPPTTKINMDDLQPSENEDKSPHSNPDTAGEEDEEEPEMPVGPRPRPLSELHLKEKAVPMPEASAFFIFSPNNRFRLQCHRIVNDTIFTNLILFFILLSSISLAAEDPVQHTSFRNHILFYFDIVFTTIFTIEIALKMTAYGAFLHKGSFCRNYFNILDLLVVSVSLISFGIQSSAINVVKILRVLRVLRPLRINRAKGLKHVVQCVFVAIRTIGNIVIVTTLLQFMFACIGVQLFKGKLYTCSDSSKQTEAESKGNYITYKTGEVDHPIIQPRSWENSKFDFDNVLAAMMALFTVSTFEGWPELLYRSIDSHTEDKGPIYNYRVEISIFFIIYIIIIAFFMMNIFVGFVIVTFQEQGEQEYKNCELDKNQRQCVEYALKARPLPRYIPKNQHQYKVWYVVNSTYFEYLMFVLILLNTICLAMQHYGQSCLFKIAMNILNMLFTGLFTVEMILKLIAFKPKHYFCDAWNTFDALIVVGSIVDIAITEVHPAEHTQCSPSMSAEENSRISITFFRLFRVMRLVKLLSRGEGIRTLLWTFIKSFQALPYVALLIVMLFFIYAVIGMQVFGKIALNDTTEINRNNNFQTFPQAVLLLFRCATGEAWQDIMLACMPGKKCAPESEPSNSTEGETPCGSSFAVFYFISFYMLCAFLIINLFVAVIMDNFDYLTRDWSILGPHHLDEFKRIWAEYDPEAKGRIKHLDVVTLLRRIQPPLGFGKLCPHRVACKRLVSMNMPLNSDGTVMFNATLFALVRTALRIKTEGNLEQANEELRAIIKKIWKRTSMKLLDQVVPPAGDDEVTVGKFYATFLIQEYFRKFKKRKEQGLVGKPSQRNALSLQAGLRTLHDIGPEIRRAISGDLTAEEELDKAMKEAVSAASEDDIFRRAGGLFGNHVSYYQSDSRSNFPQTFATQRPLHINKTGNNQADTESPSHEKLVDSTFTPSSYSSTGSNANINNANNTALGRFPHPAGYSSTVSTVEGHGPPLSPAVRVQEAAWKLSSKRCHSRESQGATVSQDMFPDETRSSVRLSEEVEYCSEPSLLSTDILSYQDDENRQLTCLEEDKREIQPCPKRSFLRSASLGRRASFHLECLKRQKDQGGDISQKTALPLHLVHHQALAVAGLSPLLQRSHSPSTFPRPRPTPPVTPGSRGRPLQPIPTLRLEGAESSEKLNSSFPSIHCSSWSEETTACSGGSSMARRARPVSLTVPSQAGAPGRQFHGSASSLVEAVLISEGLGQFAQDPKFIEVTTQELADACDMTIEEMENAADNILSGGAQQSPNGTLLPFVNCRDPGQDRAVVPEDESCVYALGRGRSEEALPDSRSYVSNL
Histamine H3 receptor, sequence (Q9Y5N1 whole entry): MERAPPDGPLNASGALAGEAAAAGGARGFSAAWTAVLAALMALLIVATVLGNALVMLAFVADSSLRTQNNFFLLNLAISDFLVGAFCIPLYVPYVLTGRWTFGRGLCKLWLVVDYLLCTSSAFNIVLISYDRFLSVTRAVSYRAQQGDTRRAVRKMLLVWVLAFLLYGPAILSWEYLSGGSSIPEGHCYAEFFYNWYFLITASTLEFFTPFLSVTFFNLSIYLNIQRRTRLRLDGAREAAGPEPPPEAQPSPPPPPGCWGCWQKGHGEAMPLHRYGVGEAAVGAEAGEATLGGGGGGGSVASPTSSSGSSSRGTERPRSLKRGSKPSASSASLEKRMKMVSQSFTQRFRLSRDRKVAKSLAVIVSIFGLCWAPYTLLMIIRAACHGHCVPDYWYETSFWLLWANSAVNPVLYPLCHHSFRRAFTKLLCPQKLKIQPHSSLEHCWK
T1 sequence (P41595 whole entry): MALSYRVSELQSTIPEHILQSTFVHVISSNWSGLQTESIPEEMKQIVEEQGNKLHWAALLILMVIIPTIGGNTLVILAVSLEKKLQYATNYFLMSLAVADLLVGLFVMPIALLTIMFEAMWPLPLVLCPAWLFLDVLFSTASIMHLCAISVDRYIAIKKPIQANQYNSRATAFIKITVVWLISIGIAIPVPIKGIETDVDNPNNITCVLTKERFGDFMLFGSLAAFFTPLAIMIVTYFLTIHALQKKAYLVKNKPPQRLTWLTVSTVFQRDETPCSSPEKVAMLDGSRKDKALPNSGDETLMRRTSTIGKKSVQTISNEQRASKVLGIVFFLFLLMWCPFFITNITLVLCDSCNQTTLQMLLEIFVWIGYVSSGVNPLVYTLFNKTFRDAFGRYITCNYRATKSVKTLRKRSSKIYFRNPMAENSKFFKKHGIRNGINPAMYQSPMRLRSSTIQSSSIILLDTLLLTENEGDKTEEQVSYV
5-hydroxytryptamine receptor 2A, sequence (P28223 whole entry): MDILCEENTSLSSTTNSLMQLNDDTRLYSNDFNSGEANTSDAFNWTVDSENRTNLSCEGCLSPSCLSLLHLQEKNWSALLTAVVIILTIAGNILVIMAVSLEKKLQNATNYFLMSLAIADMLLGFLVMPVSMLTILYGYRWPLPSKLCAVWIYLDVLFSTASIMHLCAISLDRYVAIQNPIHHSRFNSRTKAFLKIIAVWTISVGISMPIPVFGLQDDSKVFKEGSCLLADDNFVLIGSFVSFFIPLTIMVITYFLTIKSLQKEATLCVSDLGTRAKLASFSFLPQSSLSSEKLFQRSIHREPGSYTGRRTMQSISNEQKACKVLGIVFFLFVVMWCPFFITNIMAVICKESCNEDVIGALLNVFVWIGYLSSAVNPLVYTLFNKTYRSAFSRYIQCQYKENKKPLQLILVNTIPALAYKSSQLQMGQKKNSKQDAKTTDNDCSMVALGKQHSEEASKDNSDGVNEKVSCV
Mu-type opioid receptor, sequence (P35372 whole entry): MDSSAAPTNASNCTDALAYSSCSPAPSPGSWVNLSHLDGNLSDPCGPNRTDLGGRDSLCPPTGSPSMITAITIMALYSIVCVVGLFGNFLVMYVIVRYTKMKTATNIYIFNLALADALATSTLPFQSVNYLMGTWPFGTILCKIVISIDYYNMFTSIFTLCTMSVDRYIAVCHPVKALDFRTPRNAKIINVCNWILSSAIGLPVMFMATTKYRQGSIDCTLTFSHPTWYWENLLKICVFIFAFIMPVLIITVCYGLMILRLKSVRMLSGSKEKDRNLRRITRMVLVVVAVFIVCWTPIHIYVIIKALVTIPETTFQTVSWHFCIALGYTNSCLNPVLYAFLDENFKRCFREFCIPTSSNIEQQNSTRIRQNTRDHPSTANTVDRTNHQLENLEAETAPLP

As to `CO/N=C(\C(=O)N[C@@H]1C(=O)N2C(C(=O)[O-])=C(C[N+]3(C)CCCC3)CS[C@H]12)c1csc(N)n1`, the AC50 in [1] is over 300 µM; in assay [2], over 300 µM; in [3], over 30 µM; in [4], over 300 µM; in assay [5] it was over 30 µM; at Adenosine receptor A1, over 300 µM. For the same compound, the half-maximal activity concentration (AC50) in [6] is over 300 µM; in [7], over 30 µM; at Mu-type opioid receptor, over 300 µM; at Cannabinoid receptor 1, over 300 µM; at Adenosine receptor A3 it was over 300 µM; on D(3) dopamine receptor it was over 300 µM. For the same compound, the concentration at half-maximal activity (AC50) in assay [8] is over 300 µM; on Histamine H3 receptor it was > 30 µM and 97 µM.
Consider `Nc1nc(N)c2nc(-c3ccccc3)c(N)nc2n1`, for which the half-maximal activity concentration (AC50) in assay [1] was over 30 µM; in assay [2], over 30 µM; in assay [9], over 30 µM; in [3] it was over 30 µM; in assay [4], 24 µM; in assay [5], over 10 µM. Moreover, the AC50 at Adenosine receptor A1 was over 30 µM; in assay [6] it was over 30 µM; at Mu-type opioid receptor it was 17 µM; at Cannabinoid receptor 1 it was over 30 µM; on Adenosine receptor A3, over 30 µM; on D(3) dopamine receptor it was over 30 µM. Moreover, the AC50 (in assay [8]; at Histamine H3 receptor) was over 30 µM in each case.
For the compound `C[C@H]1O[C@H](O[C@H]2[C@H](O)[C@@H](O)[C@@H](O[C@H]3[C@H](O)[C@@H](O)C(O)O[C@@H]3CO)O[C@@H]2CO)[C@H](O)[C@@H](O)[C@@H]1N[C@H]1C=C(CO)[C@@H](O)[C@H](O)[C@H]1O` (some centres not stated) [ACARBOSE], the AC50 in [1] is over 30 µM; in assay [2], over 30 µM; in assay [9] it was over 30 µM; in assay [3], over 10 µM; in assay [4], over 30 µM; in assay [5], over 10 µM. Moreover, the AC50 was over 30 µM on Adenosine receptor A1; over 10 µM in [6]; over 10 µM at Mu-type opioid receptor; over 30 µM at Cannabinoid receptor 1; over 30 µM on Adenosine receptor A3; over 10 µM on D(3) dopamine receptor. Further, the AC50 (in [8]; at Histamine H3 receptor) was over 30 µM in each case.
`CN(C)CCCN1c2ccccc2CCc2ccc(Cl)cc21` [CLOMIPRAMINE]: the AC50 was 5.6 µM in assay [1]; over 10 µM in assay [2]; 0.0154 µM in assay [9]; over 10 µM in assay [3]; 0.0445 µM in assay [5]; over 30 µM in assay [6]. For the same compound, the AC50 at Mu-type opioid receptor is over 10 µM; on D(3) dopamine receptor, 0.3 µM; on Histamine H3 receptor, 3.8 µM.
With `COC(=O)[C@@H]1CC2=CC(=O)CC[C@]2(C)[C@@]23O[C@@H]2C[C@@]2(C)[C@@H](CC[C@@]24CCC(=O)O4)[C@H]13` [EPLERENONE], the AC50 in assay [1] was over 30 µM; in assay [2] it was over 30 µM; in assay [3] it was over 10 µM; in [4], over 30 µM; in [5] it was over 10 µM; on Adenosine receptor A1 it was over 30 µM. For the same compound, the concentration at half-maximal activity (AC50) (in assay [6]; in assay [7]; on Mu-type opioid receptor; on Cannabinoid receptor 1; on Adenosine receptor A3; on D(3) dopamine receptor) was over 30 µM throughout. Moreover, the half-maximal activity concentration (AC50) (in assay [8]; at Histamine H3 receptor) was over 30 µM in each case.
In the case of `C#C[C@]1(O)CC[C@H]2[C@@H]3CCc4cc(O)ccc4[C@H]3CC[C@@]21C` [ETHINYL ESTRADIOL], the concentration at half-maximal activity (AC50) is 18 µM in assay [1]; over 10 µM in assay [2]; over 10 µM in assay [9]; over 10 µM in [3]; 16 µM in assay [4]; over 10 µM in assay [5]. Further, the half-maximal activity concentration (AC50) on Adenosine receptor A1 is over 30 µM; in assay [6] it was over 30 µM; on Mu-type opioid receptor, over 30 µM; on Adenosine receptor A3 it was 13.5 µM; on D(3) dopamine receptor, over 10 µM; in assay [8], 24.3 µM. The same compound yielded a concentration at half-maximal activity (AC50) at Histamine H3 receptor of over 10 µM.
Turning to `CC(C)C(=O)Nc1ccc([N+](=O)[O-])c(C(F)(F)F)c1` [FLUTAMIDE], the AC50 in assay [1] was over 10 µM; in assay [2], over 10 µM; in assay [9], 9.04 µM; in assay [3] it was over 10 µM; in [4] it was over 30 µM; in [5] it was over 30 µM. For the same compound, the half-maximal activity concentration (AC50) on Adenosine receptor A1 was over 30 µM; in [6] it was over 30 µM; on Mu-type opioid receptor, over 30 µM; at Adenosine receptor A3, over 30 µM; on D(3) dopamine receptor, over 30 µM; in [8], over 10 µM. This compound returned a concentration at half-maximal activity (AC50) on Histamine H3 receptor of over 30 µM.
With `CCc1ccc(CCOc2ccc(CC3SC(=O)NC3=O)cc2)nc1` (configuration not stated) [PIOGLITAZONE], the AC50 in assay [1], in [2], in assay [9], in [3], in assay [4] and in assay [5] was over 10 µM in each case. Besides, the AC50 was over 30 µM on Adenosine receptor A1; over 10 µM in assay [6]; over 10 µM at Mu-type opioid receptor; over 30 µM on Adenosine receptor A3; over 10 µM on D(3) dopamine receptor; over 30 µM in [8].
As to `O=C(CCCCCCC(=O)Nc1ccccc1)NO` [VORINOSTAT], the AC50 in assay [1] is over 30 µM; in assay [2], over 30 µM; in assay [3] it was over 10 µM; in assay [4], over 30 µM; in assay [5] it was over 10 µM; at Adenosine receptor A1, over 30 µM. The AC50 (in [6]; in [7]; at Mu-type opioid receptor; on Cannabinoid receptor 1; on Adenosine receptor A3; on D(3) dopamine receptor) was over 30 µM in each case. The half-maximal activity concentration (AC50) (in [8]; at Histamine H3 receptor) was over 30 µM throughout.
